Laboratory results as given in US4780452A, “F-substituted-3-β-D-ribofuranosyl-3H-imidazo[4,5-b]pyridines and pharmaceutical compositions thereof” (Burroughs Wellcome Co., priority 1986, dated 1988).

Tests used:
[1] = Yeast-induced hyperthermia assay, antipyretic activity; format: in vivo; settings: po; rat, n exceeds 10
Excerpt: The Yeast-induced hyperthermia assay was used according to the procedure described by Khalili-Varasteh et al. in Arch. Int. Pharmacodyn.

[2] = New Trypsin Hyperalgesic Assay (NTHA); format: in vivo; settings: po, 1 h, read-out: ED50, analgesic activity, NTHA (Rat): dose which reduced the average pain score 50% relative to solvent control
Procedure: A sensitive mild analgesic assay is the New Trypsin Hyperalgesic Assay (NTHA). At the start of the assay 250 μg of trypsin is injected in one hindlimb of each rat. Thirty minutes later each drug is given per os. One hour after the drugs are given the sensitivity of each rat to a 3.0 kg force is determined.

[3] = Carrageenin Pleurisy Assay (CPA), acute anti-inflammatory activity; format: in vivo, rat; settings: po, read-out: ED50, acute anti-inflammatory activity (CPA): dose required to reduce the 3 hour exudate volume by 50%
Procedure: Following the procedure described by Vinegar et al. in Proc. Soc. Exp. Biol. Med. 151, 5546, (1976), the acute anti-inflammatory activity of the Compound A (defined in Example 16, vide supra) was compared with that of known anti-inflammatory drugs, i.e., aspirin an acetaminophen in the rat. The average 3 hour exudate volume for each drug treated group was determined and the % inhibition relative to a solvent control group calculated, the ED50 being the dose required to reduce the 3 hour exudate volume by 50%.

[4] = Acetic Acid Writhing Test (AAWT), mouse; format: in vivo; settings: po, read-out: ED50, analgesic activity, AAWT (Mouse)
Excerpt: (§1) Using the procedure described by Koster et al. in Fed. […] 26, Anti-inflammatory Drugs, Ed.

[5] = Acetic Acid Writhing Test (AAWT), rat; format: in vivo; settings: po, read-out: ED50, analgesic activity, AAWT (Rat)
Excerpt: as §1

Toxicity (LD50) = settings: rat, in vivo; Charles River CD rats, males and females
[6] = rat, p.o., 250 μg trypsin in one hindlimb, 3.0 kg force one hour after drug, n exceeds 10

CC(=O)Nc1ccc(O)cc1 [Acetaminophen]
ED50 [1]: 72 ± 8.6 mg/kg
ED50 [2, 6]: 13 ± 1.7 mg/kg

CC(=O)Oc1ccccc1C(=O)O [Aspirin]
ED50 ([3]; Rattus norvegicus, 3 h): 28 ± 3.2 mg/kg
ED50 ([4]; Mus musculus): 21 ± 3.4 mg/kg
ED50 [1]: 50 ± 8.1 mg/kg
ED50 ([5]; Rattus norvegicus): 137 ± 16.9 mg/kg
ED50 ([2]; Rattus norvegicus): 14 ± 2.7 mg/kg

OC[C@H]1O[C@@H](n2cnc3c(Nc4ccccc4)ccnc32)[C@H](O)[C@@H]1O [Compound A, 7-anilino-3-β-D-ribofuranosyl-3H-imidazo[4,5-b]pyridine]
ED50 ([3]; rat, p.o., 3 hour exudate volume, n exceeds 10): 0.24 ± 0.063 mg/kg
ED50 ([4]; mouse, p.o., n exceeds 10): 0.33 ± 0.038 mg/kg
LD50 (Toxicity (LD50)): > 100 mg/kg
ED50 [1]: 0.65 ± 0.06 mg/kg
ED50 ([5]; rat, p.o., n exceeds 10): 0.74 ± 0.093 mg/kg
ED50 [2, 6]: 0.1 ± 0.03 mg/kg
